Laboratory results from publication PMC7285812 (Drug Design, Development and Therapy, 2020).
“And” between values parts separate entries of the source, which are not always exact repeats. Equal values may be shown once.

Assays:
[1] = molecular target: α-glucosidase (Saccharomyces cerevisiae, UniProt P53341); assay: Michaelis–Menten kinetics of α-glucosidase inhibition; assay type: biochemical; conditions: Michaelis–Menten / Lineweaver–Burk
[2] = molecular target: α-glucosidase from Saccharomyces cerevisiae (Saccharomyces cerevisiae, UniProt P53341); assay: α-Glucosidase inhibition, chromogenic assay; assay type: biochemical; conditions: read-out: (%) Inhibition α-glucosidase
[3] = DPPH radicals scavenging assay
[4] = ABTS free radicals scavenging assay

Sequence of α-glucosidase from Saccharomyces cerevisiae (P53341 whole entry): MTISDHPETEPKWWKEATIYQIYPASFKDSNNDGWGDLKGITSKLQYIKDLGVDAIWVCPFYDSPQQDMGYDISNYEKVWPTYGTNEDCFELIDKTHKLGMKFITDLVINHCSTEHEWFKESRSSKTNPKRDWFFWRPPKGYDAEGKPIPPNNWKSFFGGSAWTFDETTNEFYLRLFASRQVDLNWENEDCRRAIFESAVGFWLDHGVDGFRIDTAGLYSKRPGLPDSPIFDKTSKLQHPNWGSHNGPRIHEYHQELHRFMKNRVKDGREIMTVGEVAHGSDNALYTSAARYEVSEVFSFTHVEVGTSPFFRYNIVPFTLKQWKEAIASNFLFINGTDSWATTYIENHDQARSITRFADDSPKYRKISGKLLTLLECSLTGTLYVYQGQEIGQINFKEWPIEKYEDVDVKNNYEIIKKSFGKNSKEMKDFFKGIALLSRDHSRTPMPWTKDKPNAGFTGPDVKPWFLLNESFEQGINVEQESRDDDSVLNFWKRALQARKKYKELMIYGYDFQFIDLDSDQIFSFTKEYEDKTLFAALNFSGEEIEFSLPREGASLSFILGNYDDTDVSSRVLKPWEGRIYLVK
Sequence of α-glucosidase (P53341 whole entry): as above

C[C@H]1O[C@H](O[C@H]2[C@H](O)[C@@H](O)[C@@H](O[C@H]3[C@H](O)[C@@H](O)C(O)O[C@@H]3CO)O[C@@H]2CO)[C@H](O)[C@@H](O)[C@@H]1N[C@H]1C=C(CO)[C@@H](O)[C@H](O)[C@H]1O (stereo partly drawn) [Acarbose (Std), acarbose, reference compound]
Vmax, α-glucosidase [1]: 2.639 µg/min and 2.616 µg/min | inhibition at 15.62 µg/mL [2]: 41.8 ± 0.37% | inhibition at 31.25 µg/mL [2]: 49.9 ± 0.48% | inhibition at 62.5 µg/mL [2]: 57.7 ± 0.88% | inhibition at 125 µg/mL [2]: 63.9 ± 1.27% | inhibition at 250 µg/mL [2]: 72 ± 2.01% | inhibition at 500 µg/mL [2]: 75.1 ± 1.04% | inhibition at 1000 µg/mL [2]: 83.6 ± 1.67%

O=C1O[C@H]([C@@H](O)CO)C(O)=C1O [Ascorbic acid (Std.), ascorbic acid, reference compound]
(%) Inhibition DPPH ([3]; 15.62 μg/mL): 48.70 ± 0.90% | (%) Inhibition DPPH ([3]; 31.25 μg/mL): 55.23 ± 1.21% | (%) Inhibition DPPH ([3]; 62.5 μg/mL): 61.40 ± 1.85% | (%) Inhibition DPPH ([3]; 125 μg/mL): 69.66 ± 1.36% | (%) Inhibition DPPH ([3]; 250 μg/mL): 77.00 ± 1.73% | (%) Inhibition DPPH ([3]; 500 μg/mL): 83.96 ± 1.91% | (%) Inhibition DPPH ([3]; 1000 μg/mL): 89.00 ± 0.57% | IC50 ([3]; read-out: IC50 DPPH free radicals scavenging): 96.5 µM | (%) Inhibition ABTS ([4]; 15.62 μg/mL): 46.00±0.58% | (%) Inhibition ABTS ([4]; 31.25 μg/mL): 52.67±0.89% | (%) Inhibition ABTS ([4]; 62.5 μg/mL): 58.00±1.15% | (%) Inhibition ABTS ([4]; 125 μg/mL): 67.00±0.00% | (%) Inhibition ABTS ([4]; 250 μg/mL): 75.03±0.23% | (%) Inhibition ABTS ([4]; 500 μg/mL): 81.70±1.60% | (%) Inhibition ABTS ([4]; 1000 μg/mL): 87.73±0.78% | IC50 ([4]; read-out: IC50 ABTS free radicals scavenging): 85.2 µM
